Measured values: patent publication US20090054403A1, “Treatment of Post-Traumatic Stress Disorder” (priority 2007, published 2009)
Where “and” joins values, the source holds several entries; their conditions need not be identical. Equal entries are not always repeated. Where two headings read alike, the source gives them in different places.

Legend:
[1] = molecular target: T1, bovine dopamine-β-hydroxylase (Bos taurus, UniProt P15101); assay: Bovine DBH activity, conversion of tyramine to octopamine (HPLC); type: biochemical; settings: for IC50: 0.1 mM tyramine, 4 mM ascorbate, pH 5.2
T1 construct: Bovine DBH from adrenal glands was obtained from Sigma Chemicals; purchased Sigma Chemicals (St Louis, Mo.); host or cells: bovine adrenal glands
T1 sequence (P15101 1-610): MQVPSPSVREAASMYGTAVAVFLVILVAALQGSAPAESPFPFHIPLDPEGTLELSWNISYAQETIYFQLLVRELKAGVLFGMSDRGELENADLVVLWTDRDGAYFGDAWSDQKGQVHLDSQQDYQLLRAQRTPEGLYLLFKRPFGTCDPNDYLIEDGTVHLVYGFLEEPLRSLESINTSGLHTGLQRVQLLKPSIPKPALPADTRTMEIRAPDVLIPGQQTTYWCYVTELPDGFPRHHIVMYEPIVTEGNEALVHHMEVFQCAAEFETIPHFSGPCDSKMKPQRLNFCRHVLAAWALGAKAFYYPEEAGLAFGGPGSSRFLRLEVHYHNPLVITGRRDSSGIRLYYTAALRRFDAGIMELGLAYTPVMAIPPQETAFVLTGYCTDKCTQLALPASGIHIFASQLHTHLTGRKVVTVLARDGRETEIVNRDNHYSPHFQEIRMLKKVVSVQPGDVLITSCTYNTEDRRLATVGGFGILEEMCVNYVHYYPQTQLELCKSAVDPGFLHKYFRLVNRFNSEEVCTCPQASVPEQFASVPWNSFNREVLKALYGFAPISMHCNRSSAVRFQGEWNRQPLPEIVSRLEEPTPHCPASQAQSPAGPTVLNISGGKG
Experimental: (§1) Bovine and human dopamine-β-hydroxylase activity was assayed by measuring the conversion of tyramine to octopamine. Bovine adrenal dopamine-β-hydroxylase was obtained from Sigma Chemicals (St Louis, Mo., USA) whereas human dopamine-β-hydroxylase was purified from the culture medium of the neuroblastoma cell line SK-N-SH. The assay was performed at pH 5.2 and 32° C. in a medium containing 0.125 M NaAc, 10 mM fumarate, 0.5-2 μM CuSO4, 0.1 mg.ml^−1 catalase, 0.1 mM tyramine and 4 mM ascorbate. In a typical assay, 0.5-1 milliunits of enzyme were added to the reaction mixture and, subsequently, a substrate mixture containing catalase, tyramine and ascorbate was added to initiate the reaction (final volume of 200 μl). Samples were incubated with or without the appropriate concentration of nepicastat (S-enantiomer) or (R)-5-Aminomethyl-1-(5,7-difluoro-1,2,3,4-tetrahydronaphth-2-yl)-2,3-dihydro-2-thioxo-1H-imidazole hydrochloride (R-enantiomer) at 37° C. for 30-40 minutes. The reaction was quenched by the stop solution containing 25 mM EDTA and 240 μM 3-hydroxytyramine (internal standard). The samples were analysed for octopamine by reverse phase high pressure liquid chromatography (HPLC) using ultraviolet-detection at […]. The HPLC chromatography run was carried out at the flow rate of 1 ml.min^−1 using a LiChroCART 125-4 RP-18 column and isocratic elution with 10 mM acidic acid, 10 mM 1-heptane sulfonic acid, 12 mM tetrabutyl ammonium phosphate and 10% methanol. The remaining percent activity was calculated based on controls, corrected using internal standards and fitted to a non-linear four-parameter concentration-response curve.
(§2) In vitro assay of DBH activity. DBH activity was assayed by measuring the conversion of tyramine to octopamine. Bovine DBH from adrenal glands was obtained from Sigma Chemical Co (St Louis, Mo.). Human secretory DBH was purified from the culture medium of the neuroblastoma cell line SK-N-SH. The assay was performed at pH 5.2 and 32° C. in 0.125 M NaOAc, 10 mM fumarate, 0.5-2 μM CUSO4, 0.1 mg/mL catalase, 0.1 mM tyramine and 4 mM ascorbate. In a typical assay, 0.5-1 milliunits of enzyme were added to the reaction mixture and then a substrate mixture containing catalase, tyramine and ascorbate was added to initiate the reaction (final volume of 200 μL). Samples were incubated with or without the appropriate concentration of the inhibitor at 37° C. for 30-40 min. The reaction was quenched by the stop solution containing 25 mM EDTA and 240 μM 3-hydroxytyramine (internal standard). The samples were analysed for octopamine by reverse phase HPLC using UV detection at […]. The remaining percent activity was calculated based on controls (without inhibitor), corrected using internal standards and fitted to a non-linear 4-parameter concentration-response curve to obtain IC50 values.
(§3) Bovine DBH from adrenal glands was obtained from Sigma Chemicals (St. Louis, Mo.). Human secretory DBH was purified from the culture medium of the neuroblastoma cell line SK-N-SH and was used to obtain the inhibition data. A lentil lectin-sepharose column containing 25 ml gel was prepared and equilibrated with 50 mM KH2PO4, pH 6.5, 0.5 M NaCl. The column was eluted with 35 ml of 10% methyl α, D-mannopyranoside in 50 mM KH2PO4, pH 6.5, 0.5 M NaCl at 0.5 ml/min. Fraction containing most enzymatic activities were pooled and concentrated with an Amicon stirred cell using a YM30 membrane. […]

[2] = molecular target: T2, human dopamine-β-hydroxylase (Homo sapiens, UniProt P09172); assay: Human DBH activity, conversion of tyramine to octopamine (HPLC); type: biochemical; settings: for IC50: 0.1 mM tyramine, 4 mM ascorbate, pH 5.2
T2 construct: Human secretory DBH was purified from the culture medium of the neuroblastoma cell line SK-N-SH; endogenous in cells; host or cells: SK-N-SH neuroblastoma cells; secreted enzyme purified in house from the culture medium on lentil lectin-sepharose
T2 sequence (P09172 40-617 limits assumed): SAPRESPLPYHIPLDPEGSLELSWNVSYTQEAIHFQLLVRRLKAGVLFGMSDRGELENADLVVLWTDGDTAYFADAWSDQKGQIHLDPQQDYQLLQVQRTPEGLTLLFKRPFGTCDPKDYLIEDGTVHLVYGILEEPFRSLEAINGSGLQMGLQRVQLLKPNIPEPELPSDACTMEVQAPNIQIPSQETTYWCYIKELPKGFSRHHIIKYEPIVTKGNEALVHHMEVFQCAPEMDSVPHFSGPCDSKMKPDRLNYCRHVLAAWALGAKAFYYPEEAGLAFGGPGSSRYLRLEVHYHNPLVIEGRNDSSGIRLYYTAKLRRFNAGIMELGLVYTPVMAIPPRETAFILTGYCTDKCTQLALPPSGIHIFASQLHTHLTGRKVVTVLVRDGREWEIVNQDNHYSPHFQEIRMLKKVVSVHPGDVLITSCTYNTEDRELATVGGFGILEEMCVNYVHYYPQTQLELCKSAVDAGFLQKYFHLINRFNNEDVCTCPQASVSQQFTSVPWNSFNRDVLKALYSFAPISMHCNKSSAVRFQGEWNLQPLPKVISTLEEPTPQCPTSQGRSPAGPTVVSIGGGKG
Experimental: as §1, §2
as §3, with “membrane. Methyl α, D-mannopyranoside was removed by buffer exchange with in 50 mM KH2PO4, pH 6.5, 0.1 M NaCl. The concentrated enzyme solution was aliquoted and stored at −25° C. An HPLC assay was used to measure DBH activity using tyramine and ascorbate as substrates.” for “membrane.”

[3] = bovine and human DBH taken together

Structure (SMILES)	IC50 [1]	IC50 [2]	potency relative to SKF 102698 [1]	potency relative to the R enantiomer [1]	potency relative to SKF 102698 [2]	potency relative to the R enantiomer [2]	potency relative to SKF 102698 [2, 3]	potency relative to the R enantiomer [2, 3]	selectivity for dopamine-β-hydroxylase ([2]; vs the other enzymes studied)
Cl.NCc1c[nH]c(=S)n1[C@@H]1CCc2c(F)cc(F)cc2C1 [R-enantiomer, (R)-5-Aminomethyl-1-(5,7-difluoro-1,2,3,4-tetrahydronaphth-2-yl)-2,3-dihydro-2-thioxo-1H-imidazole hydrochloride]	25.1 ± 0.6 nM	18.3 nM and 18 nM	–	–	–	–	–	–	–
Fc1cc(F)cc(Cn2cc[nH]c2=S)c1 [SKF 102698, reference compound]	67 ± 4.2 nM	85 ± 3.7 nM	–	–	–	–	–	–	–
Cl.NCc1c[nH]c(=S)n1[C@H]1CCc2c(F)cc(F)cc2C1 [nepicastat, (S)-5-Aminomethyl-1-(5,7-difluoro-1,2,3,4-tetrahydronaphth-2-yl)-2,3-dihydro-2-thioxo-1H-imidazole hydrochloride]	8.5 ± 0.8 nM	9 nM	8 fold	3 fold	9 fold	2 fold	8-9 fold	2-3 fold	> 1000 fold
